# Data published in US6916849B2, “Compositions for improving lipid content in the blood” (priority 2000, dated 2005).
# Key:
# [1] = test system: total cholesterol in the serum; assay: Evaluation of serum lipid level: total cholesterol in serum of beagle dogs after oral administration for 11 days (CEH-COD-POD method); settings: oral capsule once daily, pravastatin 2 mg/kg, mean of 5 dogs
# Source text: (§1) Pravastatin with a purity of 99.4%, manufactured at Sankyo Co. Ltd., was employed in the study.
# (§2) Male beagle dogs were purchased at 5 months old from Covance Research Products Inc., as the test animals, and were used after quarantine and acclimatization periods of approximately 1 month.
# (§3) The required amounts of pravastatin or each combination drug as calculated based on the body weight of each animal were placed in a gelatin capsule (½-ounce volume) purchased from TORPAC Co. Capsules filled with pravastatin were stored in a cold room and with combination drugs at room temperature until use.
# (§4) Combination drugs were put in identical geltin capsules.
# (§5) Capsules filled with pravastatin or combination drugs were orally administered once daily between 9:00 and 12:30 to the test animals. All test animals were fasted 2-3 hr prior to administration. The administration period was 11 successive days.
# (§6) Approximately 10 ml of blood were collected from the cephalic vein on 14 and 7 days before administration (2 and one week before the drug administration) and 4, 8, and 12 days after administration of the capsules. The animals were fasted for approximate 18 hr prior to blood collection. Collected blood was placed into test tubes and left for 0.5-1 hr at room temperature. The test tubes were then centrifuged at 3,000 rpm for 10 min to isolate serum. Levels of total cholesterol and ALP in the serum were determined by the CEH-COD-POD and Bessey-Lowry methods, respectively.
# (§7) For quantitative analyses, an automatic analyzer, Monarch (Instrumentation Laboratory), was used.
# (§8) Each value represents the mean value calculated from 5 animals.
# [2] = test system: ALP in the serum; settings: oral capsule once daily, pravastatin 2 mg/kg, riboflavin acetate 6 mg/kg, relative to pre-administration average (100), mean of 5 dogs
# Source text: as §1, §2, §3, §4, §5, §6, §7, §8
# [3] = d-α-tocopherol acetate 10 mg/kg, ascorbic acid 50 mg/kg, relative to pre-administration average (100)
# [4] = d-α-tocopherol acetate 10 mg/kg, relative to pre-administration average (100)
# [5] = riboflavin acetate 6 mg/kg, relative to pre-administration average (100)
# [6] = ascorbic acid 50 mg/kg, relative to pre-administration average (100)
compound,measurement,setting,value
CC(=O)Oc1c(C)c(C)c2c(c1C)CC[C@@](C)(CCC[C@H](C)CCC[C@H](C)CCCC(C)C)O2 [d-α-tocopherol acetate],"Total Cholesterol Level in Serum After Administration, 4 days",[1]; [3],97.8
same,"Total Cholesterol Level in Serum After Administration, 4 days",[1]; [4],96.3
same,"Total Cholesterol Level in Serum After Administration, 8 days",[1]; [3],96.4
same,"Total Cholesterol Level in Serum After Administration, 8 days",[1]; [4],92.8
same,"Total Cholesterol Level in Serum After Administration, 12 days",[1]; [3],96.1
same,"Total Cholesterol Level in Serum After Administration, 12 days",[1]; [4],95.9
Riboflavin acetate,"ALP level (after administration), 4 days",[2]; 4 days,98.1
same,"ALP level (after administration), 8 days",[2]; 8 days,98.8
same,"ALP level (after administration), 12 days",[2]; 12 days,93.9
same,"Total Cholesterol Level in Serum After Administration, 4 days","[1]; riboflavin acetate 6 mg/kg, relative to average level 2 and 1 week before administration (100)",103.9
same,"Total Cholesterol Level in Serum After Administration, 8 days",[1]; [5],101.6
same,"Total Cholesterol Level in Serum After Administration, 12 days",[1]; [5],100.5
"O=C1O[C@H]([C@@H](O)CO)C(O)=C1O [Ascorbic acid, ascorbic acid]","Total Cholesterol Level in Serum After Administration, 4 days",[1]; [6],98.7
same,"Total Cholesterol Level in Serum After Administration, 8 days",[1]; [6],98.2
same,"Total Cholesterol Level in Serum After Administration, 12 days",[1]; [6],103.4
